Assay results published in PubChem BioAssay AID1259407 (Chemical Carcinogenesis Research Information System (CCRIS), 2018).
Calls of active or inactive are those of the source. The rule behind the calls is not given here.

Test system: CCRIS mutagenicity, Ames/micronucleus/aberration tests
Assay: CCRIS mutagenicity studies
[1] = Test System: AMES SALMONELLA TYPHIMURIUM, Strain/Indicator: TA98, Metabolic Activation: NONE, Method: STANDARD PLATE
[2] = Test System: AMES SALMONELLA TYPHIMURIUM, Strain/Indicator: TA98, Metabolic Activation: RAT, LIVER, S-9, AROCLOR 1254, Method: STANDARD PLATE
[3] = Test System: AMES SALMONELLA TYPHIMURIUM, Strain/Indicator: TA100, Metabolic Activation: NONE, Method: STANDARD PLATE
[4] = Test System: AMES SALMONELLA TYPHIMURIUM, Strain/Indicator: TA100, Metabolic Activation: RAT, LIVER, S-9, AROCLOR 1254, Method: STANDARD PLATE
[5] = Test System: AMES SALMONELLA TYPHIMURIUM, Strain/Indicator: TA100, Metabolic Activation: NONE, Method: PREINCUBATION
[6] = Test System: AMES SALMONELLA TYPHIMURIUM, Strain/Indicator: TA1535, Metabolic Activation: NONE, Method: PREINCUBATION
[7] = Test System: AMES SALMONELLA TYPHIMURIUM, Strain/Indicator: TA98, Metabolic Activation: RAT, LIVER, S-9, Method: STANDARD PLATE

## Oc1ccc2cccc(O)c2c1
Test System: AMES SALMONELLA TYPHIMURIUM, Strain/Indicator: TA2637, Metabolic Activation: NONE, Method: PREINCUBATION
  mutagenic call: active; positive

## CCC12OC1(C(=O)OC)C(=O)OC2C (stereo not drawn)
Test System: AMES SALMONELLA TYPHIMURIUM, Strain/Indicator: TA98, Metabolic Activation: NONE, Method: DISK ASSAY
  mutagenic call: inactive; negative
[1]
  mutagenic call: inactive; negative
Test System: AMES SALMONELLA TYPHIMURIUM, Strain/Indicator: TA98, Metabolic Activation: RAT, LIVER, S-9, AROCLOR 1254, Method: DISK ASSAY
  mutagenic call: inactive; negative
[2]
  mutagenic call: active; positive

## CC1(C)CCC[C@]2(C)C(C=O)C(C=O)=CC[C@@H]12 (stereo partly drawn)
[2]
  mutagenic call: inactive; negative
[3]
  mutagenic call: inactive; negative
Test System: AMES SALMONELLA TYPHIMURIUM, Strain/Indicator: TA2637, Metabolic Activation: NONE, Method: STANDARD PLATE
  mutagenic call: inactive; negative
Test System: CHINESE HAMSTER V-79, Strain/Indicator: V-79/6-THIOGUANINE (HGPRT), Metabolic Activation: NONE
  mutagenic call: inactive; negative

## CC(C)CCC[C@@H](C)[C@H]1CC[C@H]2[C@@H]3CC=C4CCCC[C@]4(C)[C@H]3CC[C@]12C
Test System: AMES SALMONELLA TYPHIMURIUM, Strain/Indicator: TA97A, Metabolic Activation: NONE, Method: STANDARD PLATE
  mutagenic call: inactive; negative
Test System: AMES SALMONELLA TYPHIMURIUM, Strain/Indicator: TA97A, Metabolic Activation: RAT, LIVER, S-9, AROCLOR 1254, Method: STANDARD PLATE
  mutagenic call: inactive; negative
[3]
  mutagenic call: inactive; negative
[4]
  mutagenic call: inactive; negative
Test System: AMES SALMONELLA TYPHIMURIUM, Strain/Indicator: TA102, Metabolic Activation: NONE, Method: STANDARD PLATE
  mutagenic call: inactive; negative
Test System: AMES SALMONELLA TYPHIMURIUM, Strain/Indicator: TA102, Metabolic Activation: RAT, LIVER, S-9, AROCLOR 1254, Method: STANDARD PLATE
  mutagenic call: inactive; negative
Test System: AMES SALMONELLA TYPHIMURIUM, Strain/Indicator: TA104, Metabolic Activation: NONE, Method: STANDARD PLATE
  mutagenic call: inactive; negative
Test System: AMES SALMONELLA TYPHIMURIUM, Strain/Indicator: TA104, Metabolic Activation: RAT, LIVER, S-9, AROCLOR 1254, Method: STANDARD PLATE
  mutagenic call: inactive; negative

## CC(CCN(C)C)N(C)C (stereo not drawn)
Test System: AMES SALMONELLA TYPHIMURIUM, Strain/Indicator: TA98, Metabolic Activation: HAMSTER, LIVER, S-9, AROCLOR 1254 (10%), Method: PREINCUBATION
  mutagenic call: inactive; negative
Test System: AMES SALMONELLA TYPHIMURIUM, Strain/Indicator: TA98, Metabolic Activation: NONE, Method: PREINCUBATION
  mutagenic call: inactive; negative
Test System: AMES SALMONELLA TYPHIMURIUM, Strain/Indicator: TA98, Metabolic Activation: RAT, LIVER, S-9, AROCLOR 1254 (10%), Method: PREINCUBATION
  mutagenic call: inactive; negative
Test System: AMES SALMONELLA TYPHIMURIUM, Strain/Indicator: TA98, Metabolic Activation: RAT, LIVER, S-9, PCB, Method: PREINCUBATION
  mutagenic call: inactive; negative
Test System: AMES SALMONELLA TYPHIMURIUM, Strain/Indicator: TA100, Metabolic Activation: HAMSTER, LIVER, S-9, AROCLOR 1254 (10%), Method: PREINCUBATION
  mutagenic call: inactive; negative
[5]
  mutagenic call: inactive; negative
Test System: AMES SALMONELLA TYPHIMURIUM, Strain/Indicator: TA100, Metabolic Activation: RAT, LIVER, S-9, AROCLOR 1254 (10%), Method: PREINCUBATION
  mutagenic call: inactive; negative
Test System: AMES SALMONELLA TYPHIMURIUM, Strain/Indicator: TA100, Metabolic Activation: RAT, LIVER, S-9, PCB, Method: PREINCUBATION
  mutagenic call: inactive; negative
Test System: AMES SALMONELLA TYPHIMURIUM, Strain/Indicator: TA1535, Metabolic Activation: HAMSTER, LIVER, S-9, AROCLOR 1254 (10%), Method: PREINCUBATION
  mutagenic call: inactive; negative
[6]
  mutagenic call: inactive; negative
Test System: AMES SALMONELLA TYPHIMURIUM, Strain/Indicator: TA1535, Metabolic Activation: RAT, LIVER, S-9, AROCLOR 1254 (10%), Method: PREINCUBATION
  mutagenic call: inactive; negative
Test System: AMES SALMONELLA TYPHIMURIUM, Strain/Indicator: TA1537, Metabolic Activation: HAMSTER, LIVER, S-9, AROCLOR 1254 (10%), Method: PREINCUBATION
  mutagenic call: inactive; negative
Test System: AMES SALMONELLA TYPHIMURIUM, Strain/Indicator: TA1537, Metabolic Activation: NONE, Method: PREINCUBATION
  mutagenic call: inactive; negative
Test System: AMES SALMONELLA TYPHIMURIUM, Strain/Indicator: TA1537, Metabolic Activation: RAT, LIVER, S-9, AROCLOR 1254 (10%), Method: PREINCUBATION
  mutagenic call: inactive; negative

## C/C=C/C=C/C(=O)O
Test System: AMES SALMONELLA TYPHIMURIUM, Strain/Indicator: TA97A, Metabolic Activation: NONE, Method: PREINCUBATION
  mutagenic call: inactive; negative
Test System: AMES SALMONELLA TYPHIMURIUM, Strain/Indicator: TA97A, Metabolic Activation: RAT, LIVER, S-9, AROCLOR 1254, Method: PREINCUBATION
  mutagenic call: inactive; negative
Test System: AMES SALMONELLA TYPHIMURIUM, Strain/Indicator: TA102, Metabolic Activation: NONE, Method: PREINCUBATION
  mutagenic call: inactive; negative
Test System: AMES SALMONELLA TYPHIMURIUM, Strain/Indicator: TA102, Metabolic Activation: RAT, LIVER, S-9, AROCLOR 1254, Method: PREINCUBATION
  mutagenic call: inactive; negative
Test System: CHINESE HAMSTER V-79, Strain/Indicator: V-79/6-THIOGUANINE, Metabolic Activation: NONE, Method: FLASK ASSAY
  mutagenic call: active; positive

## CC(=O)Nc1ccccc1C
[1]
  mutagenic call: inactive; negative
[2]
  mutagenic call: inactive; negative
[3]
  mutagenic call: inactive; negative
[4]
  mutagenic call: inactive; negative

## Oc1cnc2ccccc2c1
[3]
  mutagenic call: inactive; negative
Test System: AMES SALMONELLA TYPHIMURIUM, Strain/Indicator: TA100, Metabolic Activation: RAT, LIVER, S-9, AROCLOR 1254 (10% OR 20%), Method: STANDARD PLATE
  mutagenic call: inactive; negative

## Cc1cccc(C)c1N=Nc1c(O)ccc2ccccc12
[1]
  mutagenic call: inactive; negative
[7]
  mutagenic call: inactive; negative
[3]
  mutagenic call: inactive; negative
Test System: AMES SALMONELLA TYPHIMURIUM, Strain/Indicator: TA100, Metabolic Activation: RAT, LIVER, S-9, Method: STANDARD PLATE
  mutagenic call: inactive; negative

## CCOC(=O)N(CCC=O)N=O
[5]
  mutagenic call: active; positive
Test System: AMES SALMONELLA TYPHIMURIUM, Strain/Indicator: TA104, Metabolic Activation: NONE, Method: PREINCUBATION
  mutagenic call: active; positive
[6]
  mutagenic call: active; positive

## O=[N+]([O-])c1ccc(-c2nc3n(c2[N+](=O)[O-])CCS3)cc1
[1]
  mutagenic call: active; positive
[3]
  mutagenic call: active; positive
Test System: AMES SALMONELLA TYPHIMURIUM, Strain/Indicator: TA1535, Metabolic Activation: NONE, Method: STANDARD PLATE
  mutagenic call: inactive; negative
Test System: AMES SALMONELLA TYPHIMURIUM, Strain/Indicator: TA1537, Metabolic Activation: NONE, Method: STANDARD PLATE
  mutagenic call: inactive; negative
Test System: AMES SALMONELLA TYPHIMURIUM, Strain/Indicator: TA1538, Metabolic Activation: NONE, Method: STANDARD PLATE
  mutagenic call: active; positive

## CNC(=O)ONC(C)=O
[1]
  mutagenic call: active; positive
[7]
  mutagenic call: active; positive
[3]
  mutagenic call: active; positive

## CSc1ncnc2nc[nH]c12
[3]
  mutagenic call: active; positive

## COc1c2ccccc2[n+]([O-])c2occc12
[1]
  mutagenic call: inactive; negative
Test System: AMES SALMONELLA TYPHIMURIUM, Strain/Indicator: TA98, Metabolic Activation: RAT LIVER S-9, PHENOBARTITAL, Method: STANDARD PLATE
  mutagenic call: inactive; negative

## c1ccc2c(c1)ccc1cc3ccc4ccccc4c3nc12
Test System: AMES SALMONELLA TYPHIMURIUM, Strain/Indicator: TA100, Metabolic Activation: RAT, LIVER, S-9, PHENOBARBITAL AND 5,6-BENZOFLAVONE, Method: STANDARD PLATE
  mutagenic call: active; positive

## CC(=O)OC1Cc2ccc3ccc4cccc5cc1c2c3c45 (stereo not drawn)
[1]
  mutagenic call: active; positive
[3]
  mutagenic call: active; positive
